The record followed here is US4798834A, “Optionally substituted (3β-9,10-didehydro-2,3-dihydro ergoline as serotonergic function enhancement” (Eli Lilly and Company, priority 1987, dated 1989).

Molecules are shown by their SMILES. Entries after “also recorded” stand apart in the source; their conditions may differ.

In one assay the target is 5-HT1 receptor. Kind of assay: binding to 5-HT1 sites ([3H]serotonin displacement, rat brain frontal cortex). Also on record: species or system rat (Wistar). The following applies: for IC50: 2 nM [3H]serotonin, rat frontal cortex; for Selectivity Ratio: IC50 5HT2 / IC50 5HT1, values greater than 1 indicate selectivity for the 5HT1 receptor. The protocol: All radioactive ligands were obtained from New England Nuclear, Boston, Mass., USA. Specific binding was determined as the difference between total binding and nonspecific binding. Eleven concentrations of each of the compounds tested were used between 0.1 and 10,000 nM. All samples were run in duplicate.

Another assay addresses T1, 5-HT2 receptor (Rattus norvegicus, UniProt P14842).
T1 construct: Rat brain frontal cortex from male Wistar rats; from tissue; host or cells: rat brain frontal cortex (male Wistar), membrane pellet
The experiment in a line: binding to 5-HT2 sites ([3H]spiperone displacement, rat brain frontal cortex). Details: species or system rat (Wistar). The protocol:
The pellet from the frontal cortex homogenates was suspended in 0.05 molar (M) Tris buffer containing 10 micromolar (μM) pargyline and 4 millimolar (mM) Ca^++ to give a final protein concentration of 250-350 microgram (μg) per sample. […] All radioactive ligands were obtained from New England Nuclear, Boston, Mass., USA. Specific binding was determined as the difference between total binding and nonspecific binding. Eleven concentrations of each of the compounds tested were used between 0.1 and 10,000 nM. All samples were run in duplicate.

Assay [1] deals with serotonin and 5-HIAA in rat brain. Kind of assay: animal or person. It counts as in vivo, rat (Wistar). As to conditions: sc, subcutaneous, 1 h after injection, p<0.05 vs control, read-out: Minimum effective dose suppressing 5-HIAA. The procedure: Male Wistar rate (HSD/[WI]BR) weighing about 150 g were kept in a temperature-controlled (24° C.) and light-controlled room (lights on from 7:00 A.M. to 7:00 P.M.) with food and water freely available. The compounds to be tested were dissolved in dilute hydrochloric acid and injected subcutaneously. Five rats per group were used in each experiment. The rats were decapitated one hour after injection and the brains were excised quickly, frozen on dry ice and stored at -15° C. before analysis. […] Neurosci. Abstr. […] Serum corticosterone levels were determined spectrofluorometrically by the method of Solem et al., Scand. J. Clin. Lab. Invest. […] 80, 1.

The next assay concerns serum corticosterone. The experiment in a line: corticosterone concentrations in the serum of rats. It counts as in vivo, rat (Wistar). As to conditions: sc; subcutaneous; rat, 1 h after injection; p<0.05 vs control; read-out: Minimum effective dose increasing serum corticosterone. The protocol: (§1) Male Wistar rate (HSD/[WI]BR) weighing about 150 g were kept in a temperature-controlled (24° C.) and light-controlled room (lights on from 7:00 A.M. to 7:00 P.M.) with food and water freely available. The compounds to be tested were dissolved in dilute hydrochloric acid and injected subcutaneously. Five rats per group were used in each experiment. The rats were decapitated one hour after injection and the brains were excised quickly, frozen on dry ice and stored at -15° C. before analysis. […] See Fuller et al., Biochem. Pharmacol. 1977, 26, 2087 and Perry et al., Soc. Neurosci. Abstr. 1979, 5, 348. Serum corticosterone levels were determined spectrofluorometrically by the method of Solem et al., Scand. J. Clin. Lab. Invest. 1965, 17, suppl. 80, 1.
The minimum effective doses of these same compounds which produced a statistically significant decrease in 5-HIAA concentration and a statistically significant increase in serum corticosterone concentration are shown in Table II. The minimum effective dose is the lowest dose producing significant differences from a control group (p<0.05).

Assay [2] has as its system 5-hydroxytryptophan in rat hypothalamus. Kind of assay: accumulation of 5-hydroxytryptophan in rat hypothalamus (NSD-1015 treated rats). It counts as in vivo, rat (Wistar). As to conditions: for 5-Hydroxytryptophan Concentration in Hypothalamus: NSD-1015 100 mg/kg i.p., mean ± SE, n=5, control 1.92 ± 0.07, significant decrease p<0.01. The procedure:
as §1
The protocol previously described for neurochemical determinations was repeated with the following modification. To each of the five rats in the treatment group was administered the amino acid decarboxylase inhibitor m-hydroxybenzylhydrazine (also known as NSD-1015). See Euvard et al., Eur. J. Pharmacol. 1980, 63, 65 and Hamon et al., Arch. Pharmacol. 1976, 294, 99. The NSD-1015 was administered at a dose of 100 mg/kg (intraperitoneal) 30 minutes before decapitation and 30 minutes after the dose of the test compound of Example 1 was given.

T1 sequence (P14842 whole entry): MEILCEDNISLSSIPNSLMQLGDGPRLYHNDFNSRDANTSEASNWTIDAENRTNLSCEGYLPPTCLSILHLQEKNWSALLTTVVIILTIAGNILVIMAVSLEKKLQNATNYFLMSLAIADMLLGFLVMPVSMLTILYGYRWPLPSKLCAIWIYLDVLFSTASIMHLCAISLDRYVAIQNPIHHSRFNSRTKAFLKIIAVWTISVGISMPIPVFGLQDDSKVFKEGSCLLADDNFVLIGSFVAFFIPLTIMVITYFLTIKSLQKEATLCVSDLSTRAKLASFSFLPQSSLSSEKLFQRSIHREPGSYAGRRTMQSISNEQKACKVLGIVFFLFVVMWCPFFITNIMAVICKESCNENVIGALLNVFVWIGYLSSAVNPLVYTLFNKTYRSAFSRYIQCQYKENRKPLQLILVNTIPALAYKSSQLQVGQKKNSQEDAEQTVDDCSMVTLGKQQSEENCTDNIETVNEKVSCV

As a reminder, the IC50 is the concentration needed to halve the response being measured. Read a low IC50 as inhibition by little substance. Regarding `C=C1C=C2c3cccc4c3[C@@H](CN4)C[C@H]2N(C)C1` [Example 4, (3β)-2,3-Dihydrolysergene], at 5-HT1 receptor, the IC50 stood at 0.08 µM and the “Selectivity Ratio” value was determined as 48. On 5-HT2 receptor, this molecule gave an IC50 of 3.82 µM.
As for `COC(=O)[C@@H]1C=C2c3cccc4c3[C@@H](CN4)C[C@H]2N(C)C1` [Example 9, (3β)-2,3-Dihydro-methyllysergate], on 5-HT1 receptor, the concentration for half-maximal inhibition (IC50) turned out to be 0.04 µM and the “Selectivity Ratio” value is 40. Further, the IC50 on 5-HT2 receptor amounted to 1.62 µM.
As for `C[C@H]1C=C2c3cccc4c3[C@@H](CN4)C[C@H]2N(C)C1` [Example 2, (3β)-2,3-Dihydroisolysergine], the IC50 on 5-HT1 receptor was 0.02 µM; on 5-HT2 receptor it was above 1 µM. Besides, in the assay with 5-HT1 receptor, the “Selectivity Ratio” value is given as “at least 100”. The minimal effective dose in assay [1] was found to be 0.001 mg/kg; in the assay with serum corticosterone it was 0.003 mg/kg.
As to `CN1C[C@H](CSc2ccccc2)C=C2c3cccc4c3[C@@H](CN4)C[C@H]21` [Example 7, (3β,5β,8β)-9,10-Didehydro-2,3-dihydro-6-methyl-8-(phenylthiomethyl) ergoline], on 5-HT1 receptor, the IC50 was found to be 0.008 µM and the “Selectivity Ratio” value was determined as 26. In addition, at 5-HT2 receptor, the concentration for half-maximal inhibition (IC50) was found to be 0.21 µM.
For the molecule `CCCN1C[C@H](C)C=C2c3cccc4c3[C@@H](CN4)C[C@H]21` [Example 10, (3β,5β,8β)-9,10-Didehydro-2,3-dihydro-8-methyl-6-propylergoline], the IC50 is 0.24 µM at 5-HT1 receptor and above 1 µM on 5-HT2 receptor.
Take `NCCc1c[nH]c2ccc(O)cc12` [serotonin, 5-hydroxytryptamine, reference compound]: the IC50 on 5-HT1 receptor turned out to be 0.004 µM.
Turning to `CSC[C@@H]1C=C2c3cccc4c3[C@@H](CN4)C[C@H]2N(C)C1` [Example 5, (3β,5β,8β)-9,10-Didehydro-2,3-dihydro-6-methyl-8-(methylthiomethyl) ergoline], the values for the IC50 at 5-HT1 receptor and on 5-HT2 receptor were 0.02 µM and 1.33 µM, respectively. Further, the “Selectivity Ratio” value with 5-HT1 receptor stood at 66. Moreover, the minimal effective dose amounted to 0.1 mg/kg in assay [1] and 1 mg/kg with serum corticosterone.
For the molecule `CN1C[C@H](CC#N)C=C2c3cccc4c3[C@@H](CN4)C[C@H]21` [Example 6, (3β,5β,8β)-9,10-Didehydro-2,3-dihydro-6-methylergoline-8-acetonitrile], the values for the concentration for half-maximal inhibition (IC50) at 5-HT1 receptor and at 5-HT2 receptor were 0.02 µM and 2.12 µM, respectively. Moreover, the minimal effective dose (in assay [1]; in the assay with serum corticosterone) was 0.1 mg/kg each time.
In the case of `CN1C[C@H](CO)C=C2c3cccc4c3[C@@H](CN4)C[C@H]21` [Example 3, (3β)-2,3-Dihydrolysergol], the IC50 on 5-HT1 receptor is 0.026 µM; on 5-HT2 receptor, 2.65 µM. For the same molecule, the minimal effective dose in assay [1] amounted to 1 mg/kg; with serum corticosterone, 0.1 mg/kg.
Consider `C[C@@H]1C=C2c3cccc4c3[C@@H](CN4)C[C@H]2N(C)C1` [Example 1, (3β)-2,3-Dihydrolysergine], for which the IC50 on 5-HT1 receptor was 0.017 µM; at 5-HT2 receptor, 1.66 µM. Further, the minimal effective dose was 0.03 mg/kg in assay [1] and 0.1 mg/kg with serum corticosterone. Besides, the “5-Hydroxytryptophan Concentration in Hypothalamus” value in assay [2] (0.01 mg/kg subcutaneous) amounted to 1.64 ± 0.07 nanomoles per gram; in assay [2] (0.03 mg/kg subcutaneous), 1.19 ± 0.05 nanomoles per gram; in assay [2] (0.1 mg/kg subcutaneous), 0.73 ± 0.02 nanomoles per gram; in assay [2] (0.3 mg/kg subcutaneous), 0.71 ± 0.02 nanomoles per gram. Besides, the “5-hydroxytryptophan accumulation in the hypothalamus (in words)” value in assay [2] (NSD-1015 treated rats, 0.01-0.3 mg/kg subcutaneous) was “dose related decrease in 5-hydroxytryptophan accumulation; also recorded: Significant effects were detected at all of the doses used”. In assay [2] (NSD-1015 treated rats, subcutaneous), the “dose of maximal reduction of serotonin turnover” value is listed as 0.1 mg/kg.
In the case of `CN1C[C@H](CSc2ccccn2)C=C2c3cccc4c3[C@@H](CN4)C[C@H]21` [Example 8, (3β,5β,8β)-9,10-Didehydro-2,3-dihydro-6-methyl-8-(2-pyridylthiomethyl)ergoline], the IC50 was 0.003 µM at 5-HT1 receptor and 0.11 µM at 5-HT2 receptor. Moreover, the “Selectivity Ratio” value in the assay with 5-HT1 receptor was 28.
